# Measurements: US8846627B2, “Method for treatment of malaria” (The Second Military Medical University, priority 2009, dated 2014)
# Test system: Plasmodium berghei (chloroquine sensitive strain)
# Assay: In vivo anti-malarial activity, 4-day suppressive test in infected mice
# Conditions: Swiss albino mice; for Day 4 % Suppression / Day 5 % Suppression / Day 6 % Suppression: intragastric
# Experimental: Tests were performed in a 4-day suppressive standard test using the methods of David, Thurston and Peters (David, A. F., Philip, J. R., Simon, L. C., Reto B., and Solomon N. Antimalarial drug discovery: Efficacy models for compound screening. Nature Reviews. 2004; 3: 509-520). The plasmodium species, that is most widely employed in rodent malaria parasite-Plasmodium berghei (chloroquine sensitive strain), was used to infect Swiss albino mice for a fourday suppressive test. The P. berghei was subsequently maintained in the laboratory by serial blood passage from mouse to mouse. For the study, a donor mouse with a rising parasitemia of 20% was sacrificed and its blood was collected in a slightly heparinized syringe from the auxiliary vessels. The blood was diluted with Trisodium Citrate (TC) medium so that each 0.2 ml contained approximately 107 infected red cells. Each animal received inoculums of about […], which is expected to produce a steadily rising infection in mice.
# Male Swiss albino mice were used. The mice were allowed to acclimatize to the laboratory environment under a controlled temperature of 20° C. and at optimum humidity for at least three days before being subjected to the experiments. All of the mice were divided into groups of six, and infected with malaria parasites.
# The infection of the recipient mice was initiated by needle passage of the above mentioned parasite preparation, from the donor to healthy test animals via an intraperitoneal route. Therefore, P. berghei infected red blood cells were intraperitoneally injected into the mice from the blood diluted with TC medium so that each 0.2 ml had approximately 106-107 infected red cells (parasite per kg of body weight). Each mouse was infected with single inoculums of 0.2 ml blood.
# The 4-day procedures were started on Mondays while blood smears for parasitemia were collected on Fridays. The infected mice were weighed, randomly divided into treatment, vehicle and standard drug groups. […] The compounds were administered through intra gastric route using the stomach tube to ensure the safe ingestion of the compounds and the vehicle.
# Thin smears of blood films were obtained from the peripheral blood on the tail from each mouse on day four after infection. The smears were placed on microscopic slides, fixed with methanol and stained with Gemsa at pH 7.2, for parasitemia. […] The number of parasitized erythrocytes in each of the 10-50 such fields were counted three times and the average was calculated to give the Parasitemia of each individual animal. Percentage of suppression was calculated by using the following formula. % Suppression=(Parasitemia in negative control−Parasitemia in study group)/Parasitemia in negative control
structure (smiles),measurement,setting,value
O=C(/C=C/c1ccc(O)cc1)OC[C@H]1O[C@@H](Oc2c(-c3ccc(O)cc3)oc3cc(O)cc(O)c3c2=O)[C@H](O)[C@@H](O)[C@@H]1O [Tiliroside],Day 4 % Suppression,10 mg/kg daily for 4 days,39.1%
same,Day 5 % Suppression,10 mg/kg daily for 4 days,51.5%
same,Day 6 % Suppression,10 mg/kg daily for 4 days,35.1%
same,Day 4 % Suppression,50 mg/kg daily for 4 days,56.5%
same,Day 5 % Suppression,50 mg/kg daily for 4 days,64.0%
same,Day 6 % Suppression,50 mg/kg daily for 4 days,54.0%
same,Day 4 % Suppression,100 mg/kg daily for 4 days,34.7%
same,Day 5 % Suppression,100 mg/kg daily for 4 days,39.3%
same,Day 6 % Suppression,100 mg/kg daily for 4 days,21.6%
same,Day 4 % Suppression,200 mg/kg daily for 4 days,21.7%
same,Day 5 % Suppression,200 mg/kg daily for 4 days,30.3%
same,Day 6 % Suppression,200 mg/kg daily for 4 days,18.9%
same,Day 5 % Suppression,400 mg/kg daily for 4 days,9.0%
same,maximum suppression ratio,maximum over doses and days,60%
